In ChEMBL document CHEMBL1150996, “Syntheses and exploration of new biological activities in ethyl 6/7-substituted and 6, 7-disubstituted quinolin-4-one-3-carboxylates” (1996) one finds MIC and inhibition data, which are given here for ten compounds.

Values after ≈ are worked out from the molar mass of the structure shown. Active and inactive are the calls of the source. No cut-off for these calls is given here.

In one assay the test system is Trichophyton benhamiae. Briefly: In vitro minimum inhibitory concentration against Trichophyton mentagrophytes. Format: functional, Arthroderma benhamiae.
Assay [1] relates to Plasmodium yoelii. Briefly: (§1) Compound was evaluated for uM. Further details: concentration or dose not given beside the values. As to conditions: concentration not given here.
Assay [2] deals with Plasmodium yoelii. Briefly: Compound was evaluated for uM: No effect.
Assay [3] has as its system Plasmodium yoelii. Nature of the assay: (§2) Compound was evaluated for uM concentration. As to conditions: concentration not given here.
In assay [4] the test system is Plasmodium yoelii. Nature of the assay: Compound was evaluated for anti-heme polymerase activity in intact erythrocytes infected with drug resistant Plasmodium yoelii at 1.0 uM concentration. Format: cell-based.
Assay [5] has as its system Plasmodium yoelii. The description is as §2. As to conditions: concentration not given here. The source holds these as a separate data set.
The subject of assay [6] is Plasmodium yoelii. Described as §1. As to conditions: concentration not given here.

For orientation: MIC means the lowest concentration that inhibits growth of the organism. Usually inhibition stands for the drop in the measured response relative to a control, in per cent. `CCOC(=O)c1cnc2cc(C3CCC(=O)O3)ccc2c1O` (configuration not stated) came in with an MIC against Trichophyton benhamiae of 50 µg/mL (≈ 166 µM). For the same compound, the inhibition with Plasmodium yoelii [1] came to 46%.

In the case of `CCCCNC(=O)CCC1(c2ccc3ncc(C(=O)OCC)c(O)c3c2)CCC(=O)NC1=O` (configuration not stated), in the assay with Trichophyton benhamiae, the MIC worked out at 50 µg/mL (≈ 110 µM). The inhibition with Plasmodium yoelii [1] was found to be 85%.

`CCOC(=O)c1cnc2ccc(C3(CCC(=O)CCc4ccoc4)CCC(=O)NC3=O)cc2c1O` (configuration not stated): in the assay on Trichophyton benhamiae, the minimal inhibitory concentration (MIC) worked out at 50 µg/mL (≈ 104 µM). In the assay with Plasmodium yoelii [1], this compound displayed an inhibition of 82%.

The compound `CCOC(=O)c1cnc2cc(CO)c(O)cc2c1O` returned an MIC against Trichophyton benhamiae of 50 µg/mL (≈ 190 µM). Moreover, the inhibition entry with Plasmodium yoelii [2] was “inactive”.

Take `CCOC(=O)c1cnc2ccc(C3(CCC(=O)NC(C)CC)CCC(=O)NC3=O)cc2c1O` (configuration not stated): the inhibition turned out to be 42% in the assay on Plasmodium yoelii [3], 68% in the assay on Plasmodium yoelii [4], 17% with Plasmodium yoelii [5] and 71% with Plasmodium yoelii [1]. In the assay on Trichophyton benhamiae, this compound registered a minimum inhibitory concentration (MIC) of 50 µg/mL (≈ 110 µM).

Consider `CCOC(=O)c1cnc2ccc(C3(CCC(=O)OC)CCC(=O)NC3=O)cc2c1O` (configuration not stated), for which the inhibition in the assay on Plasmodium yoelii [3] is 40%; in the assay on Plasmodium yoelii [4], 62%; with Plasmodium yoelii [5], 11%; with Plasmodium yoelii [1], 66%. The minimum inhibitory concentration (MIC) in the assay with Trichophyton benhamiae worked out at 50 µg/mL (≈ 121 µM).

Regarding `CCOC(=O)c1cnc2cc(C3=NNC(=O)CC3)ccc2c1O`, in the assay with Trichophyton benhamiae, the minimum inhibitory concentration (MIC) came to 50 µg/mL (≈ 160 µM). Also, the inhibition with Plasmodium yoelii [1] amounted to 69%.

Turning to `CCN(CC)CCCC(C)Nc1ccnc2cc(Cl)ccc12` (configuration not stated) [CHLOROQUINE], the inhibition stood at 47% with Plasmodium yoelii [3] and 46% in the assay on Plasmodium yoelii [6]. The MIC against Trichophyton benhamiae worked out at 50 µg/mL (≈ 156 µM).

In turn, `CCOC(=O)c1cnc2ccc(C3(CCC(=O)NCCC(C)C)CCC(=O)NC3=O)cc2c1O` (configuration not stated) returned an MIC against Trichophyton benhamiae of 50 µg/mL (≈ 106 µM). The same compound came in with an inhibition in the assay on Plasmodium yoelii [1] of 88%.

In the assay on Trichophyton benhamiae, `CCOC(=O)c1cnc2ccc(C3(CCC(=O)CCc4ccc(OC)c(OC)c4)CCC(=O)NC3=O)cc2c1O` (configuration not stated) showed an MIC of 50 µg/mL (≈ 91.1 µM). The compound also returned an inhibition with Plasmodium yoelii [1] of 86%.
